Assay [1] addresses Recombinant PRC2 (EZH2-Y641F) (Homo sapiens, UniProt Q15910, Y641F). The assay can be described thus: In vitro methyltransferase activity test (LANCE Ultra).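 Also: compounds tested as an 8-point threefold dilution series, fluorescence read after 1 h detection step at room temperature, IC50 derived from a four-parameter curve fit.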 Conditions: LANCE Ultra detection, 3 hours reaction.
Assay [2] deals with Pfeiffer cells. The assay can be described thus: Cell proliferation test (cell counting kit-8, 6 days). The class given is cell-based. Conditions: 6 days' growth. The protocol: Cells were harvested by centrifuge and densities were determined using a CounterStar cell counter. Appropriate number of cells were plated in a 96-well culture plate and incubated overnight. Compounds to be tested were 1:3 diluted for 8 gradient points and added into corresponding wells. After 6 days' growth, cell counting kit-8 (Dojindo) was used to detect cell viability and absorbance values were read on Tecan infinite pro.
In general terms: Tetrazolium dyes change colour on reduction, which living cells bring about.

Setting [3] is: EZH2 Y641F IC50, Recombinant PRC2 (EZH2-Y641F).
Setting [4] is: read-out: EZH2 Y641F IC50, Recombinant PRC2 (EZH2-Y641F).

Like-named read-outs stand apart in the source and are kept apart here.

Chain of Recombinant PRC2 (EZH2-Y641F) (Q15910 whole entry Y641F): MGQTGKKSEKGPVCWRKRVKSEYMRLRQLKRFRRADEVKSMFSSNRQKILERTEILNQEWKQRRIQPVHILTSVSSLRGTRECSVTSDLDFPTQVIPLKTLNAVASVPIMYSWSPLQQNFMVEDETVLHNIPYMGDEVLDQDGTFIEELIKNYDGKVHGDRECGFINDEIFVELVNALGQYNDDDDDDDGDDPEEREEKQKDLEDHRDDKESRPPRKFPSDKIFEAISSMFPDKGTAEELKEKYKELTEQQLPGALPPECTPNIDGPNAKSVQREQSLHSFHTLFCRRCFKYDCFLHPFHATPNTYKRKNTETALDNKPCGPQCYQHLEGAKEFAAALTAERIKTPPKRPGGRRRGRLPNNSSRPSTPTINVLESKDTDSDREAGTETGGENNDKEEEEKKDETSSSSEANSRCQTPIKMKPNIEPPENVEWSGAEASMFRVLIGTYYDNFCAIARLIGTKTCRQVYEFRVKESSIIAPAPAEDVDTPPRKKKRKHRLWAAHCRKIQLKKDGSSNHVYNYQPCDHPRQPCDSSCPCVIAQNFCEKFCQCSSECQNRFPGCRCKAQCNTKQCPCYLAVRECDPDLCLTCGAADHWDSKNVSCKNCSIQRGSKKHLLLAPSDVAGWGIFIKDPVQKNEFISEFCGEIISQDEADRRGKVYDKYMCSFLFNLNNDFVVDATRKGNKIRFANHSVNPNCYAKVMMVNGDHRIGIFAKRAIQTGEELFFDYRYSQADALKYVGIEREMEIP
Chain of Recombinant PRC2 (EZH2-Y641F) (O75530 whole entry partner): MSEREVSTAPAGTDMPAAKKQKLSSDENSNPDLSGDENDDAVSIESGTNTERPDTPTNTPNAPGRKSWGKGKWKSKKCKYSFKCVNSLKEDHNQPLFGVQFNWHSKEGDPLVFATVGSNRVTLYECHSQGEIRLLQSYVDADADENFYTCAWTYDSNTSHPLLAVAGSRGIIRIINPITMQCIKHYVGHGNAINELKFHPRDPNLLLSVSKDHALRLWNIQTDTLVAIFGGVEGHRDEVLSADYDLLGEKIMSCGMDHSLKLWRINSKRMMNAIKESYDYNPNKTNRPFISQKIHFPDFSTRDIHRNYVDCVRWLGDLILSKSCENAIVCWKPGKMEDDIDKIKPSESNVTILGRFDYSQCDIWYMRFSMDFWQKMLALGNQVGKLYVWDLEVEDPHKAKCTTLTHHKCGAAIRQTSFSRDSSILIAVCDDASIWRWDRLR
Chain of Recombinant PRC2 (EZH2-Y641F) (Q15022 whole entry partner): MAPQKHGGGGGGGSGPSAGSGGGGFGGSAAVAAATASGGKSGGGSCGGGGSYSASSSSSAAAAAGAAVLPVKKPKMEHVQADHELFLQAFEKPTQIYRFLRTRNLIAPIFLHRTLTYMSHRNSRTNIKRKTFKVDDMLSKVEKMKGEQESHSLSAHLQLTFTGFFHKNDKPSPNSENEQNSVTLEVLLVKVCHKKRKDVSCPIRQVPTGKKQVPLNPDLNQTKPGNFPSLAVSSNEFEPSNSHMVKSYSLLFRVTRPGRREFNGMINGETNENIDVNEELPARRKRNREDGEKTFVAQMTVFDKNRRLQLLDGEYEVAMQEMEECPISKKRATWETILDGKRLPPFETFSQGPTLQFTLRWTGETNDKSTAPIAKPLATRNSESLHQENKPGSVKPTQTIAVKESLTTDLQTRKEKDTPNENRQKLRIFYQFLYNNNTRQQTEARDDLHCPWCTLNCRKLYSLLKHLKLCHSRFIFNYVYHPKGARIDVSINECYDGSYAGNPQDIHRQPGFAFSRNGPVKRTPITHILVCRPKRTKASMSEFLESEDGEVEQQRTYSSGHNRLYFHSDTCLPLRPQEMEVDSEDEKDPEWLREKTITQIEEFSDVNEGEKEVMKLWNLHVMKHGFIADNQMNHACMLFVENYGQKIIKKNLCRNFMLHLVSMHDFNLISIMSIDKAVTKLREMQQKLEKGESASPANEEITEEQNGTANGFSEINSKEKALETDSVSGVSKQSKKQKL
Chain of Recombinant PRC2 (EZH2-Y641F) (Q09028 whole entry partner): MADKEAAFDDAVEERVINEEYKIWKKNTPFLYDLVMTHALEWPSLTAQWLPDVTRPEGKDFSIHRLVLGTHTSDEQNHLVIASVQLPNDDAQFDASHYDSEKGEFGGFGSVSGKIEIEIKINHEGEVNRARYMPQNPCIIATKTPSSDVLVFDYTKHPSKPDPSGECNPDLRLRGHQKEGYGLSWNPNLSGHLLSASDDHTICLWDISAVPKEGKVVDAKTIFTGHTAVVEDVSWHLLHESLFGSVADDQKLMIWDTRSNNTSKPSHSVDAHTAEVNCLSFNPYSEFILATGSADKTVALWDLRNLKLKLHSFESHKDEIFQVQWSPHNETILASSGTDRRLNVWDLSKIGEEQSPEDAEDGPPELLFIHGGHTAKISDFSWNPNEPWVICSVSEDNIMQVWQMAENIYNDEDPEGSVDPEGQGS
Chain of Recombinant PRC2 (EZH2-Y641F) (Q6ZN18 whole entry partner): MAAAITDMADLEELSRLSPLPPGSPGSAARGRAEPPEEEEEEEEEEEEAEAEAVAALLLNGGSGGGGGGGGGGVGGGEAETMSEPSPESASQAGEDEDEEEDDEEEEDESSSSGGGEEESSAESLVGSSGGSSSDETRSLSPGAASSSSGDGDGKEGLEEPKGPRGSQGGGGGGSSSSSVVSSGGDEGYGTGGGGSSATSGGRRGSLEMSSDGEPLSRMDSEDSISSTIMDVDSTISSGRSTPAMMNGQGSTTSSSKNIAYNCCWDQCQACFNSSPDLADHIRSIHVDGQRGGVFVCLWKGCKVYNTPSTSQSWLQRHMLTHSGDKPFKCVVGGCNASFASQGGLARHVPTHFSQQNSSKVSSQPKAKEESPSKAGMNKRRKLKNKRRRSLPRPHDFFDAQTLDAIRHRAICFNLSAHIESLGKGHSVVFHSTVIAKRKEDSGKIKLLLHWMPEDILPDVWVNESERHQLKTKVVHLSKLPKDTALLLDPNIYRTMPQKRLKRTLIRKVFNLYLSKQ

As for `CCN(c1cc(Cl)cc2c(NCc3c(OC)cc(C)[nH]c3=O)nccc12)C1CCNCC1` [Compound Z-208], the IC50 (as a rule, the concentration that inhibits the measured activity by half) was determined as 9 nM in assay [1] (setting [3]) and 155 nM in assay [2] (Homo sapiens, Pfeiffer, 144 h).

With `CCN(c1c(F)c(-c2ccc(N3CCN(C)CC3)nc2)cc2c(NCc3c(C)cc(C)[nH]c3=O)nccc12)C1CCC(N(C)C)CC1` (stereo not drawn) [Compound Z-218, 3-((5-((4-(dimethylamino)cyclohexyl) (ethyl)amino)-6-fluoro-7-(6-(4-methylpiperazin-1-yl)pyridin-3-yl)isoquinolin-1-ylamino)methyl)-4,6-dimethyl-2(1H)-one], the IC50 in assay [1] (setting [3]) came to 28 nM; in assay [2] (Homo sapiens, Pfeiffer, 144 h) it was 212 nM. Taken in the same sequence, the figures for `CCN(c1cc(-c2cccnc2)cc2c(NCc3c(C)cc(C)[nH]c3=O)nccc12)C1CCC(O)CC1` (stereo not drawn) [Compound Z-85] were 269 nM and 521 nM. For `CCN(c1cc(-c2cncc(F)c2)cc2c(NCc3c(C)cc(C)[nH]c3=O)nccc12)C1CCN(C(C)C)CC1` [Compound Z-125] the same measures were 22 nM and 772 nM. In the case of `CCN(c1cc(C#CCN2CCOCC2)cc2c(NCc3c(C)cc(C)[nH]c3=O)nccc12)C1CCC(N(C)C)CC1` (stereo not drawn) [Compound Z-177], the IC50 came out at 31 nM in assay [1] (setting [3]) and 444 nM in assay [2] (Homo sapiens, Pfeiffer, 144 h). As to `CCN(c1cc(-c2ccc(CN3CCN(C)CC3)nc2)cc2c(NCc3c(C)cc(C)[nH]c3=O)nccc12)C1CCC(O)CC1` (stereo not drawn) [Compound Z-196], the IC50 in assay [1] (setting [3]) was found to be 16 nM; in assay [2] (Homo sapiens, Pfeiffer, 144 h) it was 583 nM. For `CCN(c1cc(-c2ccc(CN3CCN(C)CC3)nc2)cc2c(NCc3c(C)cc(C)[nH]c3=O)nccc12)C1CCOCC1` [Compound Z-35], the results for the IC50 in assay [1] (setting [3]) and in assay [2] were 221 nM and 611 nM, respectively. As to `CCN(c1cc(Cl)cc2c(NCc3c(C)cc(C)[nH]c3=O)nccc12)[C@H]1CC[C@@H](N(C)C)CC1` [Compound Z-136], the IC50 in assay [1] (setting [3]) amounted to 49 nM; in assay [2] (Homo sapiens, Pfeiffer, 144 h), 465 nM.

Take `CCN(c1cc(-c2ccc(CN3CCN(C)CC3)nc2)cc2c(NCc3c(C)cc(C)[nH]c3=O)nccc12)C1CCOCC1` [Compound Z-118]: the IC50 in assay [1] (setting [3]) stood at 85 nM; in assay [2] (Homo sapiens, Pfeiffer, 144 h), 973 nM. Turning to `CCN(c1cc(-c2ccc(CN(C)C)cc2)cc2c(NCc3c(C)cc(C)[nH]c3=O)nccc12)C1CCC(N(C)C)CC1` (stereo not drawn) [Compound Z-45], the IC50 in assay [1] (setting [3]) was determined as 38 nM; in assay [2] (Homo sapiens, Pfeiffer, 144 h), 599 nM.

For the molecule `CCN(c1cc(C#CCN2CCN(C)CC2)cc2c(NCc3c(C)cc(C)[nH]c3=O)nccc12)C1CCC(N(C)C)CC1` (stereo not drawn) [Compound Z-180], the IC50 in assay [1] (setting [3]) turned out to be 13 nM; in assay [2] (Homo sapiens, Pfeiffer, 144 h), 380 nM.

In the case of `CCN(c1cc(-c2cnc(N3CCOCC3)nc2)cc2c(NCc3c(C)cc(C)[nH]c3=O)nccc12)[C@H]1CC[C@@H](O)CC1` [Compound Z-108], the IC50 in assay [1] (setting [4]) stood at 283 nM; in assay [2], 612 nM. For `CCN(c1cc(-c2ccc(N3CCOCC3)nc2)cc2c(NCc3c(C)cc(C)[nH]c3=O)nccc12)C1CCN(C(C)C)CC1` [Compound Z-66], the IC50 in assay [1] (setting [3]) amounted to 159 nM; in assay [2] (Homo sapiens, Pfeiffer, 144 h), 766 nM. Taken in the same sequence, the figures for `CCN(c1cc(N(C)c2cccnc2)cc2c(NCc3c(C)cc(C)[nH]c3=O)nccc12)C1CCC(N(C)C)CC1` (stereo not drawn) [Compound Z-186] were 67 nM and 251 nM. Turning to `CCN(c1cc(Cl)cc2c(NCc3c(C)cc(C)[nH]c3=O)nccc12)C1CCC(N(C)C)CC1` (stereo not drawn) [Compound Z-132], the IC50 was 107 nM in assay [1] (setting [4]) and 301 nM in assay [2]. Take `CCN(c1cc(-c2ccc(C3CCN(C)CC3)nc2)cc2c(NCc3c(C)cc(C)[nH]c3=O)nccc12)[C@H]1CC[C@H](N(C)C)CC1` [Compound Z-17, 3-((5-(((1R,4R)-4-(dimethylamino)cyclohexyl) (ethyl)amino)-7-(6-(1-methylpiperidine-4-yl)pyridine-3-yl)-isoquinolinylamino)methyl)-4,6-dimethylpyridine-2(1H)-one]: the concentration for half-maximal inhibition (IC50) came out at 13 nM in assay [1] (setting [3]) and 768 nM in assay [2] (Homo sapiens, Pfeiffer, 144 h). For `CCN(c1cc(C2=CCN(C)CC2)cc2c(NCc3c(C)cc(C)[nH]c3=O)nccc12)C1CCC(O)CC1` (stereo not drawn) [Compound Z-91] the same measures were 75 nM and 291 nM.

As for `CCN(c1cc(-c2cnc(CN3CCOCC3)nc2)cc2c(NCc3c(C)cc(C)[nH]c3=O)nccc12)C1CCOCC1` [Compound Z-121], the IC50 in assay [1] (setting [3]) was 474 nM; in assay [2] (Homo sapiens, Pfeiffer, 144 h), 646 nM.

For `CCN(c1cc(-c2ccc(CN3CCOCC3)nc2)cc2c(NCc3c(C)cc(C)[nH]c3=O)nccc12)C1CCOCC1` [Compound Z-113], the IC50 in assay [1] (setting [3]) came to 153 nM; in assay [2] (Homo sapiens, Pfeiffer, 144 h) it was 713 nM. Taken in the same sequence, the figures for `CCN(c1cc(-c2ccc(C3CC3)nc2)cc2c(NCc3c(C)cc(C)[nH]c3=O)nccc12)C1CCC(N(C)C)CC1` (stereo not drawn) [Compound Z-93] were 74 nM and 279 nM. Taken in the same sequence, the figures for `CCN(c1cc(-c2ccncc2)cc2c(NCc3c(C)cc(C)[nH]c3=O)nccc12)[C@H]1CC[C@H](N(C)C)CC1` [Compound Z-73] were 150 nM and 593 nM.

Turning to `CCN(c1cc(Cl)cc2c(NCc3c(C)cc(C)[nH]c3=O)nccc12)C1CCNCC1` [Compound Z-201], the IC50 in assay [1] (setting [3]) worked out at 59 nM; in assay [2] (Homo sapiens, Pfeiffer, 144 h) it was 133 nM. As for `CCN(c1cc(-c2ccc(N3CCN(C)CC3)nc2)cc2c(NCc3c(C)cc(C)[nH]c3=O)nccc12)C1CCN(C2CC2)CC1` [Compound Z-74], the IC50 in assay [1] (setting [3]) was found to be 326 nM; in assay [2] (Homo sapiens, Pfeiffer, 144 h), 799 nM.

`CCN(c1cc(OCCOC)cc2c(NCc3c(C)cc(C)[nH]c3=O)nccc12)C1CCC(N(C)C)CC1` (stereo not drawn) [Compound Z-206]: the IC50 in assay [1] (setting [3]) was 115 nM; in assay [2] (Homo sapiens, Pfeiffer, 144 h) it was 234 nM. Consider `CCN(c1cc(-c2ccc(CN3CCN(C(C)C)CC3)nc2)cc2c(NCc3c(C)cc(C)[nH]c3=O)nccc12)C1CCOCC1` [Compound Z-112], for which the IC50 in assay [1] (setting [3]) was 96 nM; in assay [2] (Homo sapiens, Pfeiffer, 144 h) it was 595 nM. For `CCN(c1cc(-c2ccc(N3CCN(C)CC3)nc2)cc2c(NCc3c(C)cc(C)[nH]c3=O)nccc12)C1CCC(O)CC1` (stereo not drawn) [Compound Z-86], the IC50 in assay [1] (setting [3]) stood at 128 nM; in assay [2] (Homo sapiens, Pfeiffer, 144 h), 483 nM.

As to `CCN(c1cc(N(C)c2cccnc2)cc2c(NCc3c(C)cc(C)[nH]c3=O)nccc12)[C@H]1CC[C@H](N(C)C)CC1` [Compound Z-183], the 50% inhibitory concentration (IC50) was 128 nM in assay [1] (setting [3]) and 395 nM in assay [2] (Homo sapiens, Pfeiffer, 144 h). Turning to `CCN(c1cc(-c2ccc(N3CCN(C)CC3)nc2)cc2c(NCc3c(OC)cc(C)[nH]c3=O)nccc12)C1CCC(N(C)C)CC1` (stereo not drawn) [Compound Z-193], the IC50 came out at 21 nM in assay [1] (setting [3]) and 620 nM in assay [2] (Homo sapiens, Pfeiffer, 144 h). For the molecule `CCN(c1cc(-c2cncnc2)cc2c(NCc3c(C)cc(C)[nH]c3=O)nccc12)C1CCC(N(C)C)CC1` (stereo not drawn) [Compound Z-65], the IC50 in assay [1] (setting [3]) is 52 nM; in assay [2] (Homo sapiens, Pfeiffer, 144 h), 972 nM. With `CCN(c1cc(-c2ccc(N3CCN(C)CC3)nc2)cc2c(NCc3c(C)cc(C)[nH]c3=O)nccc12)C1CCNC(C)C1` (stereo not drawn) [Compound Z-220, 3-((5-(ethyl (2-methylpiperidin-4-yl)amino)-7-(6-(4-methylpiperazin-1-yl)pyridin-3-yl)isoquinolin-1-ylamino)methyl)-4,6-dimethylpyridine-2(1H)-one], the IC50 was determined as 31 nM in assay [1] (setting [3]) and 651 nM in assay [2] (Homo sapiens, Pfeiffer, 144 h). For the molecule `CCN(c1cc(-c2ccc(N3CCOCC3)nc2)cc2c(NCc3c(C)cc(C)[nH]c3=O)nccc12)C1CCC(O)CC1` (stereo not drawn) [Compound Z-70], the IC50 in assay [2] worked out at 516 nM. For `CCN(c1cc(-c2cnc(CN3CCN(C)CC3)c(F)c2)cc2c(NCc3c(C)cc(C)[nH]c3=O)nccc12)C1CCOCC1` [Compound Z-116], the IC50 in assay [1] (setting [3]) was found to be 41 nM; in assay [2] (Homo sapiens, Pfeiffer, 144 h) it was 525 nM. As for `CCN(c1cc(-c2cnc(CN3CCN(C)CC3)nc2)cc2c(NCc3c(C)cc(C)[nH]c3=O)nccc12)C1CCOCC1` [Compound Z-115], the concentration for half-maximal inhibition (IC50) is 47 nM in assay [1] (setting [3]) and 706 nM in assay [2] (Homo sapiens, Pfeiffer, 144 h). On to `CCN(c1cc(-c2ccccn2)cc2c(NCc3c(C)cc(C)[nH]c3=O)nccc12)C1CCN(C(C)C)CC1` [Compound Z-126], for which the IC50 came to 156 nM in assay [1] (setting [3]) and 765 nM in assay [2] (Homo sapiens, Pfeiffer, 144 h).

Regarding `Cc1cc(C)c(CNc2nccc3c(N(C)C4CCC(N(C)C)CC4)cc(-c4ccc(N5CCN(C)CC5)nc4)cc23)c(=O)[nH]1` (stereo not drawn) [Compound Z-111], the IC50 worked out at 37 nM in assay [1] (setting [3]) and 478 nM in assay [2] (Homo sapiens, Pfeiffer, 144 h). Taken in the same sequence, the figures for `CCN(c1cc(-c2ccc(CN3CCN(C)CC3)cc2)cc2c(NCc3c(C)cc(C)[nH]c3=O)nccc12)[C@H]1CC[C@H](N(C)C)CC1` [Compound Z-54] were 19 nM and 614 nM. For `CCN(c1cc(-c2ccc(N3CCN(C)CC3)nc2)cc2c(NCc3c(C)cc(C)[nH]c3=O)nccc12)C1CCC(F)(F)CC1` [Compound Z-94] the same measures were 159 nM and 384 nM. Taken in the same sequence, the figures for `CCN(c1cc(-c2ccc(CN3CCN(C)CC3)nc2)cc2c(NCc3c(C)cc(C)[nH]c3=O)nccc12)C1CCC(F)(F)CC1` [Compound Z-105] were 197 nM and 988 nM. For the molecule `CCN(c1cc(-c2ccc(CN3CCCCC3)cc2)cc2c(NCc3c(C)cc(C)[nH]c3=O)nccc12)C1CCC(N(C)C)CC1` (stereo not drawn) [Compound Z-37], the IC50 in assay [1] (setting [3]) is 28 nM; in assay [2] (Homo sapiens, Pfeiffer, 144 h), 991 nM.

In the case of `CCN(c1cc(-c2cnc(CN3CCOCC3)c(F)c2)cc2c(NCc3c(C)cc(C)[nH]c3=O)nccc12)C1CCOCC1` [Compound Z-122], the IC50 in assay [1] (setting [3]) worked out at 439 nM; in assay [2] (Homo sapiens, Pfeiffer, 144 h), 833 nM.

`CCN(c1cc(-c2cnc(N3CCOCC3)nc2)cc2c(NCc3c(C)cc(C)[nH]c3=O)nccc12)C1CCN(C2CC2)CC1` [Compound Z-92]: inhibition in assay [2] was half-maximal at 688 nM (IC50). Same read-out and setting: under `CCN(c1cc(-c2ccc(CN3CCN(C)CC3)nc2)cc2c(NCc3c(C)cc(C)[nH]c3=O)nccc12)[C@H]1CC[C@@H](N(C)C)CC1` [Compound Z-58] stands 359 nM.

The values above are taken from patent US20200262813A1, “1,5,7-TRISUBSTITUTED ISOQUINOLINE DERIVATIVES, PREPARATION THEREOF, AND USE THEREOF IN MEDICINES” (SHANGHAI HAIYAN PHARMACEUTICAL TECHNOLOGY CO., LTD., priority 2016, published 2020).
